Laboratory results reported in ChEMBL document CHEMBL4613271, “Application of Atypical Acetyl-lysine Methyl Mimetics in the Development of Selective Inhibitors of the Bromodomain-Containing Protein 7 (BRD7)/Bromodomain-Containing Protein 9 (BRD9) Bromodomains” (J Med Chem, 2020).

Key:
[1] = Chromatographic hydrophobicity index, logD of the compound at pH 7.4 by HPLC analysis; format: physicochemical; settings: buffer
[2] = Solubility of compound by CLND method; format: physicochemical
[3] = Permeability by PAMPA; format: ADME; settings: read-out: permeability
[4] = target: T1, Bromodomain-containing protein 4 (Homo sapiens, UniProt O60885); assay: Binding affinity to human partial length BRD4 (1) (N44 to E168 residues) expressed in bacterial expression system by BROMOscan assay
[5] = target: T2, Bromodomain-containing protein 9 (Homo sapiens, UniProt Q9H8M2)
T2 sequence (Q9H8M2 whole entry): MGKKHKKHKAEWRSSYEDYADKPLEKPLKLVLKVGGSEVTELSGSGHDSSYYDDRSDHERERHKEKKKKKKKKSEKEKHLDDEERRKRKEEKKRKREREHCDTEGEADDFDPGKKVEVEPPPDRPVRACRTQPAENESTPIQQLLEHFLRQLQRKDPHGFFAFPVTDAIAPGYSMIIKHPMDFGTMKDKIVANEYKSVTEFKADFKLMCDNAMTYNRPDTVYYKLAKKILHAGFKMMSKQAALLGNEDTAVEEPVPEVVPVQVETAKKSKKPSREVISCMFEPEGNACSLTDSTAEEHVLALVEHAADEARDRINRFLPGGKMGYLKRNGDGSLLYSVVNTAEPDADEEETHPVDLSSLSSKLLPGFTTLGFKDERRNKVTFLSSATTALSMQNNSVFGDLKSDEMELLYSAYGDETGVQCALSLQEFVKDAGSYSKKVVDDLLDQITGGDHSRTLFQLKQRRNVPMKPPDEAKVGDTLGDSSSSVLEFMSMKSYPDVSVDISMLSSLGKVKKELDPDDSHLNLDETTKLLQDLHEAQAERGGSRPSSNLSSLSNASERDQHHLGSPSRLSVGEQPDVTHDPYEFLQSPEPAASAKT
Description: Binding affinity to human partial length BRD9 (R130 to V259 residues) expressed in bacterial expression system by BROMOscan assay

[6] = target: T2, Bromodomain-containing protein 9; assay: Binding affinity to BRD9 (unknown origin) N-terminal bromodomain by TR-FRET assay
[7] = target: T1, Bromodomain-containing protein 4; assay: Binding affinity to BRD4 (1) (unknown origin) N-terminal bromodomain by TR-FRET assay
Homo sapiens = species: Homo sapiens; assay: Selectivity index, ratio of IC50 for binding affinity to BRD4 (1) (unknown origin) N-terminal bromodomain to IC50 for binding affinity to BRD9 (unknown origin) N-terminal bromodomain
Peregrin = target: T3, Peregrin (Homo sapiens, UniProt P55201); assay: Binding affinity to human partial length BRPF1 (E627 to G740 residues) expressed in bacterial expression system by BROMOscan assay
T3 sequence (P55201 whole entry): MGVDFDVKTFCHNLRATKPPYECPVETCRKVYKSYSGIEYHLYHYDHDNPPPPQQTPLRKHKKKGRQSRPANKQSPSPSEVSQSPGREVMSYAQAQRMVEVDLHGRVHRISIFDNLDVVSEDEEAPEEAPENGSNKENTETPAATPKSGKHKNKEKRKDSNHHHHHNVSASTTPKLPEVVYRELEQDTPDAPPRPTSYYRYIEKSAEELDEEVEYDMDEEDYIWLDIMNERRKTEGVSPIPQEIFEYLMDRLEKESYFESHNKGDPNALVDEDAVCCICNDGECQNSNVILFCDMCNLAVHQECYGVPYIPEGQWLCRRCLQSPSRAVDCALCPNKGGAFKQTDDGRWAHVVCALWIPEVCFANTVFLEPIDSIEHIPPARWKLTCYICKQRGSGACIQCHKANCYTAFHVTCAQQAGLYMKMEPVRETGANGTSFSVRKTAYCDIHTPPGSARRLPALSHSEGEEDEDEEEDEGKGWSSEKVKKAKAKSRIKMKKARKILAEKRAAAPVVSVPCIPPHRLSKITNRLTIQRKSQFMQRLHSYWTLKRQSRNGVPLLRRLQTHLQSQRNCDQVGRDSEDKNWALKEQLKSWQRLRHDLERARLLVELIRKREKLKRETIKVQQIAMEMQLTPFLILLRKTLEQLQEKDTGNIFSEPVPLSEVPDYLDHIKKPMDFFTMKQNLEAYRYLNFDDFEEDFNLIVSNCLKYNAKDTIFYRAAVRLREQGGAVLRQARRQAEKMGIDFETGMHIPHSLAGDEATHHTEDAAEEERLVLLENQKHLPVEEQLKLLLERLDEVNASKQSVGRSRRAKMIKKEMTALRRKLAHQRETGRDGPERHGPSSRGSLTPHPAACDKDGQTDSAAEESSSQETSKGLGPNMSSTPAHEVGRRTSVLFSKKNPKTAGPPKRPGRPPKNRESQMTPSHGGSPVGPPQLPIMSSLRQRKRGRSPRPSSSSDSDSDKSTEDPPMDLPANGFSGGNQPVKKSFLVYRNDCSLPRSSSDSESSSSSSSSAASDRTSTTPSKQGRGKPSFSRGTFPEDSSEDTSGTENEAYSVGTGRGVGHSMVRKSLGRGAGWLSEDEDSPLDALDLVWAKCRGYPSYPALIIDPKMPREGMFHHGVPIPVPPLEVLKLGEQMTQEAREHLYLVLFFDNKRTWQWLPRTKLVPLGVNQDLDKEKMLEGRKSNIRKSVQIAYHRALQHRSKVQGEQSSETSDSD

[8] = target: T4, Bromodomain-containing protein 9 (Homo sapiens) (UniProt Q9H8M2); assay: Inhibition of human partial length BRD9 (R130 to V259 residues) expressed in bacterial expression system at 10 uM by BROMOscan assay relative to control
T4 sequence (whole entry): T2 sequence (Q9H8M2 whole entry)

Compound	chromatographic logD [1]	IC50 [6] [µM]	IC50 [7] [µM]	fold selectivity (Homo sapiens)	Ki (Peregrin) [µM]	Ki [4] [µM]	Ki [5] [µM]	other results
CN1CCN(c2ccccc2CNc2cnn(C)c(=O)c2)CC1	1.1							solubility kinetic [2]: ≥ 150 µg/mL; Papp [3]: 14 ×10⁻⁶ cm/s; IC50 [4]: > 50.1 µM; IC50 [5]: > 50.1 µM
Cc1c(NCc2ccccc2N2CCN(CCCN)CC2)cnn(C)c1=O	1.2	0.0631	15.8	250				
CC/C=C/c1c(NCc2ccccc2N2CCN(C)CC2)cnn(C)c1=O	3.5				> 10	> 10	> 10	
CNc1cnn(C)c(=O)c1Cl		25.1	126					
CCCCc1nnc2c(NC(=O)OCC)cc(-c3ccc(C)c(NS(C)(=O)=O)c3)nn12								inhibition [8]: > 95%
CCCCn1cc(-c2cccc(C(F)(F)F)c2)c2sc(C(=N)NC3CCS(=O)(=O)CC3)cc2c1=O							0.01	
Cc1cccc(CNc2cnn(C)c(=O)c2Cl)c1	4	2.51	20	8				
Cc1c(NCc2ccccc2N2CCOCC2)cnn(C)c1=O	3.2	0.1	20	200				
C=CCc1c(NCc2ccccc2N2CCN(C)CC2)cnn(C)c1=O	2.5				> 10	> 10	0.1	
CCOC(=O)Nc1cc(-c2ccc(C)c(NS(C)(=O)=O)c2)nn2c(C)nnc12								inhibition [8]: 100%
Cc1c(NCc2ccccc2)cnn(C)c1=O	2.9	1.26	25.1	20				
CC(C)c1c(NCc2ccccc2N2CCN(C)CC2)cnn(C)c1=O	3.1				7.94	> 10	0.316	
Cc1c(NCc2ccccc2N2CCCOCC2)cnn(C)c1=O	3.5	0.1	12.6	125				
CCc1c(NCc2ccccc2N2CCN(C)CC2)cnn(C)c1=O	2.3				6.31	7.94	0.0794	
Cc1c(NCc2ccccc2-c2ccccc2)cnn(C)c1=O	4.8	0.1	12.6	125				
CCCCc1c(Nc2cccc3c2CCN(C)C3)cnn(C)c1=O			> 50.1				0.0794	
Cc1ccccc1CNc1cnn(C)c(=O)c1C	3.6	0.398	25.1	63				
CCCc1c(NCc2ccccc2N2CCN(C)CC2)cnn(C)c1=O	2.8				> 10	> 10	0.126	
Cc1c(Nc2cccc3c2CCN(C)C3)cnn(C)c1=O			39.8				0.158	
Cc1ccc(CNc2cnn(C)c(=O)c2Cl)cc1	4	0.794	12.6	16				
CCCCCc1c(NCc2ccccc2N2CCN(C)CC2)cnn(C)c1=O	4.2				> 10	1.58	0.158	
C/C=C/Cc1c(NCc2ccccc2N2CCN(C)CC2)cnn(C)c1=O	3.1				> 10	3.98	0.0398	
C=C[C@@H](C)c1c(NCc2ccccc2N2CCN(C)CC2)cnn(C)c1=O	3.1				> 10	> 10	0.251	
C/C=C\Cc1c(NCc2ccccc2N2CCN(C)CC2)cnn(C)c1=O	3				> 10	> 10	0.251	
C=CCCc1c(NCc2ccccc2N2CCN(C)CC2)cnn(C)c1=O	3.2				> 10	> 10	0.398	
Cc1c(NCc2ccccc2N2CCNCC2)cnn(C)c1=O	0.7	0.2	> 50.1	> 250				
C=C[C@H](C)c1c(NCc2ccccc2N2CCN(C)CC2)cnn(C)c1=O	3.1				> 10	> 10	0.316	
